Patent publication US20240010606A1, “FUMARATE DERIVATIVES AND THEIR MEDICAL USE” (Sitryx Therapeutics Limited, priority 2020, published 2024)

Assays:
[1] = tested on: hepatocytes; experiment: Hepatocyte stability assay, mouse; assay type: in vitro ADME; conditions: 10 μM compound
Text: (§1) Biological Example 3—Hepatocyte Stability Assay
(§2) Defrosted cryo-preserved hepatocytes (viability >70%) are used to determine the metabolic stability of a compound via calculation of intrinsic clearance (CIint; a measure of the removal of a compound from the liver in the absence of blood flow and cell binding). Clearance data are particularly important for […] as they can be used in combination with in vivo data to predict the half-life and oral bioavailability of a drug.
(§3) The metabolic stability in hepatocytes assay involves a time-dependent reaction using both positive and negative controls. The cells must be pre-incubated at 37° C. then spiked with test compound (and positive control); samples taken at pre-determined time intervals are analysed to monitor the change in concentration of the initial drug compound over 60 minutes. A buffer incubation reaction (with no hepatocytes present) acts as a negative control and two cocktail solutions, containing compounds with known high and low clearance values (verapamil/7-hydroxycoumarin and propranolol/diltiazem), act as positive controls. • 1. The assay is run with a cell concentration of 0.5×10^6 cells/mL in Leibovitz buffer. • 2. All compounds and controls are run in duplicate. • 3. Compound concentration is 10 μM. • 4. All compounds and controls are incubated with both cells and buffer to show turnover is due to hepatic metabolism. • 5. All wells on the incubation plate will have 326.7 μL of either cells or buffer added. • 6. Prior to assay, cell and buffer-only incubation plates are preincubated for 10 mins at 37° C. • 7. The assay is initiated by adding compounds, 3.3 μL of 1 mM in 10% DMSO-90% Buffer; final DMSO concentration is 0.1%. • 8. Samples are taken at regular timepoints (0, 5, 10, 20, 40, 60 min) until 60 mins. • 9. Sample volume is 40 μL and it is added to 160 μL of crash solvent (acetonitrile with internal standard) and stored on ice. • 10. At the end of the assay, the crash plates are centrifuged at 3500 rpm for 20 mins at 4° C. • 11. 80 μL of clear supernatant is removed and mixed with 80 μL of deionised water before being analysed by LC-MS/MS.
(§4) Raw LC-MS/MS data are exported to, and analysed in, Microsoft Excel for determination of intrinsic clearance. The percentage remaining of a compound is monitored using the peak area of the initial concentration as 100%. Intrinsic clearance and half-life values are calculated using a graph of the natural log of percentage remaining versus the time of reaction in minutes. Half-life (min) and intrinsic clearance (CIint in μL min^−1 10^−6 cells) values are calculated using the gradient of the graph (the elimination rate constant, k) and Equations 1 and 2.

[2] = Hepatocyte stability assay, mouse; assay type: in vitro ADME; conditions: mouse, cryopreserved hepatocytes, 10 μM compound
Text: as §1, §2, §3, §4

[3] = tested on: hepatocytes; experiment: Hepatocyte stability assay, human; assay type: in vitro ADME; conditions: 10 μM compound
Text: as §1, §2, §3, §4

[4] = Hepatocyte stability assay, human; assay type: in vitro ADME; conditions: cryopreserved hepatocytes, 10 μM compound
Text: as §1, §2, §3, §4

[5] = tested on: IL-6; experiment: THP-1 AlphaLISA IL-6 cytokine assay; assay type: cell-based; conditions: Homo sapiens, THP-1, differentiated THP-1 cells
Protocol: (§5) Biological Example 1—THP-1 AlphaLISA IL-1β and IL-6 Cytokine Assay Measuring Inhibitory Effects on IL-1, and IL-6 Cytokine Output from THP-1s The cytokine inhibition profiles of compounds of formula (I) were determined in a differentiated THP-1 cell assay. All assays were performed in RPMI-1640 growth medium (Gibco), supplemented with 10% fetal bovine serum (FBS; Gibco), 1% penicillin-streptomycin and 1% sodium pyruvate unless specified otherwise. The IL-1β and IL-6 cytokine inhibition assays were each run in a background of differentiated THP-1 cells as described below. All reagents described were from Sigma-Aldrich unless specified otherwise. Compounds were prepared as 10 mM DMSO stocks. THP-1 cells were expanded as a suspension up to 80% confluence in appropriate growth medium. Cells were harvested, suspended, and treated with an appropriate concentration of phorbol 12-myristate 13-acetate (PMA) over a 72 hr period (37° C./5% CO2). Following 72 hrs of THP-1 cell incubation, cellular medium was removed and replaced with fresh growth media containing 1% of FBS. Working concentrations of compounds were prepared separately in 10% FBS treated growth medium and pre-incubated with the cells for 30 minutes (37° C./5% CO2). Following the 30 minute compound pre-incubation, THP-1s were treated with an appropriate concentration of LPS and the THP-1s were subsequently incubated for a 24 hr period (37° C./5% CO2). An appropriate final concentration of Nigericin was then dispensed into the THP-1 plates and incubated for 1 hour (37° C./5% CO2) before THP-1 supernatants were harvested and collected in separate polypropylene 96-well holding plates. Reagents from each of the IL-1β and IL-6 commercial kits (Perkin Elmer) were prepared and run according to the manufacturer's instructions. Subsequently, fluorescence signal detection in a microplate reader was measured (EnVision® Multilabel Reader, Perkin Elmer). Percentage inhibition was calculated per cytokine by normalizing the sample data to the high and low controls used within each plate (+/−LPS respectively). Percentage inhibition was then plotted against compound concentration and the 50% inhibitory concentration (IC50) was determined from the resultant concentration-response curve.

[6] = tested on: IL-1β; experiment: THP-1 AlphaLISA IL-1β cytokine assay; assay type: cell-based; conditions: Homo sapiens, differentiated THP-1 cells
Protocol: as §5

[7] = tested on: NRF2; experiment: NRF2 activation assay (DiscoverX PathHunter NRF2 translocation kit, U2OS cells); assay type: cell-based
Protocol: Biological Example 2—NRF2 Activation Assay Measuring Compound Activation Effects on the Anti-Inflammatory Transcription Factor NRF2 in DiscoverX PathHunter NRF2 Translocation Kit Potency and efficacy of compounds of formula (I) against the target of interest to activate NRF2 (nuclear factor erythroid 2-related factor 2) were determined using the PathHunter NRF2 translocation kit (DiscoverX). The NRF2 translocation assay was run using an engineered recombinant cell line, utilising enzyme fragment complementation to determine activation of the Keap1-NRF2 protein complex and subsequent translocation of NRF2 into the nucleus. Enzyme activity was quantified using a chemiluminescent substrate consumed following the formation of a functional enzyme upon PK-tagged NRF2 translocation into the nucleus. Additionally, a defined concentration of dimethyl fumarate was used as the ‘High’ control to normalise test compound activation responses to. U2OS PathHunter eXpress cells were thawed from frozen prior to plating. Following plating, U2OS cells were incubated for 24 hrs (37° C./5% CO2) in commercial kit provided cell medium. Following 24 hrs of U2OS incubation, cells were directly treated with an appropriate final concentration of compound. Following compound treatment, the U2OS plates were incubated for a further 6 hours (37° C./5% CO2) before detection reagent from the PathHunter NRF2 commercial kit was prepared and added to test plates according to the manufacturer's instructions. Subsequently, the luminescence signal detection in a microplate reader was measured (PHERAstar®, BMG Labtech). Percentage activation was calculated by normalising the sample data to the high and low controls used within each plate (+/−DMF). Percentage activation/response was then plotted against compound concentration and the 50% activation concentration (EC50) was determined from the plotted concentration-response curve.

[8] = Table 2, compounds of formula (II)
[9] = +GSH, normalised to dimethyl fumarate high control, Table 3
[10] = −GSH, normalised to dimethyl fumarate high control, Table 3
[11] = +GSH, Table 4, compounds of formula (II)
[12] = −GSH, Table 4, compounds of formula (II)

SMILES | CIint ([1]; Table 6) | half-life at 10 μM ([2]; Table 6, read-out: T½) [min] | CIint ([3]; Table 6) | half-life at 10 μM ([4]; Table 6, read-out: T½) [min] | IC50 [5, 8] [µM] | IC50 [6, 8] [µM] | further results
O=C(O)/C=C/C(=O)OC1(c2ccc(C(F)(F)F)cc2)COC1 [Intermediate 18, (E)-4-oxo-4-((3-(4-(trifluoromethyl)phenyl)oxetan-3-yl)oxy)but-2-enoic acid] | ++ (++ means >30-110) | 30 to 100 | ++ (++ means >30-110) | 30 to 100 | 6 to 30 | 6 to 30 | 
O=C(O)/C=C/C(=O)OC(c1ccc(C(F)(F)F)cc1)C(F)(F)F (single isomer, unassigned) [Intermediate 44, (E)-4-oxo-4-(2,2,2-trifluoro-1-(4-(trifluoromethyl)phenyl)ethoxy)but-2-enoic acid] | + (+ means >110-277) | < 5 | ++ (++ means >30-110) | 5 to 29 | < 6 | < 6 | 
C[C@H]1C[C@](OC(=O)/C=C/C(=O)O)(c2ccc(C(F)(F)F)cc2)C1 (single isomer, unassigned) [Intermediate 33, (E)-4-((cis)-3-methyl-1-(4-(trifluoromethyl)phenyl)cyclobutoxy)-4-oxobut-2-enoic acid] | +++ (+++ means >15-30) | 30 to 100 | ++++ (++++ means 5-15) | > 100 | < 6 | < 6 | 
O=C(O)/C=C/C(=O)OC1(c2ccc(C(F)(F)F)cc2)CSC1 [Intermediate 17, (E)-4-oxo-4-((3-(4-(trifluoromethyl)phenyl)thietan-3-yl)oxy)but-2-enoic acid] | + (+ means >110-277) | 5 to 29 | ++ (++ means >30-110) | 5 to 29 | 6 to 30 | 6 to 30 | 
O=C(O)CCOC(=O)/C=C/C(=O)OC1(c2ccc(C(F)(F)F)cc2)CCC1 [Example 16, (E)-3-(4-oxo-4-(1-(4-(trifluoromethyl)phenyl)cyclobutoxy)but-2-enoyloxy)propanoic acid] |  |  |  |  |  |  | CIint ([1]; Table 5): + (+ means >277); half-life at 10 μM ([2]; Table 5, read-out: T½): < 5 min; CIint ([3]; Table 5): +++ (+++ means 50-149); half-life at 10 μM ([4]; Table 5, read-out: T½): 5 to 29 min; IC50 ([5]; LPS then Nigericin, Table 1): < 2.5 µM; IC50 ([6]; LPS then Nigericin, Table 1): 2.5 to 6.1 µM
CC(CC(=O)O)OC(=O)/C=C/C(=O)OC1CCCCCCC1 (stereo not drawn) [Example 11, (E)-3-((4-(cyclooctyloxy)-4-oxobut-2-enoyl)oxy)butanoic acid] |  |  |  |  |  |  | CIint ([1]; Table 5): + (+ means >277); half-life at 10 μM ([2]; Table 5, read-out: T½): < 5 min; EC50 ([7]; +GSH, Table 3): 20 to 100 µM; NRF2 activation Emax [7, 9]: + (+ means >17.1-99); EC50 ([7]; −GSH, Table 3): < 2 µM; NRF2 activation Emax [7, 10]: ++++ (++++ means 200-250%); CIint ([3]; Table 5): +++ (+++ means 50-149); half-life at 10 μM ([4]; Table 5, read-out: T½): 5 to 29 min; IC50 ([6]; LPS then Nigericin, Table 1): < 2.5 µM
O=C(O)/C=C/C(=O)OC1(c2cc(F)c(C(F)(F)F)c(F)c2)CCC1 [Intermediate 29, (E)-4-(1-(3,5-difluoro-4-(trifluoromethyl)phenyl)cyclobutoxy)-4-oxobut-2-enoic acid] | +++ (+++ means >15-30) | 30 to 100 | ++++ (++++ means 5-15) | > 100 | < 6 | < 6 | 
O=C(O)/C=C/C(=O)OC1CCCCCCC1 [Intermediate 6, (E)-4-(cyclooctyloxy)-4-oxobut-2-enoic acid] | ++ (++ means >30-110) | 5 to 29 | ++++ (++++ means 5-15) | > 100 |  | 6 to 30 | EC50 [7, 11]: < 23 µM; NRF2 activation Emax [7, 11]: ++++ (++++ means >150%); EC50 [7, 12]: < 23 µM; NRF2 activation Emax [7, 12]: ++++ (++++ means >150%)
O=C(O)/C=C/C(=O)OC1(c2ccc(C(F)(F)F)cc2)CC(F)(F)C1 [Intermediate 32, (E)-4-(3,3-difluoro-1-(4-(trifluoromethyl)phenyl)cyclobutoxy)-4-oxobut-2-enoic acid] | +++ (+++ means >15-30) | 30 to 100 | +++ (+++ means >15-30) | 30 to 100 | < 6 | < 6 | 
C[C@H](OC(=O)/C=C/C(=O)OC1CCCCCCC1)C(=O)O [Example 6, (S,E)-2-((4-(cyclooctyloxy)-4-oxobut-2-enoyl)oxy)propanoic acid] |  |  |  |  |  |  | CIint ([1]; Table 5): ++ (++ means 200-277); half-life at 10 μM ([2]; Table 5, read-out: T½): 5 to 10 min; EC50 ([7]; +GSH, Table 3): 6 to 20 µM; NRF2 activation Emax [7, 9]: + (+ means >17.1-99); EC50 ([7]; −GSH, Table 3): < 2 µM; NRF2 activation Emax [7, 10]: ++++ (++++ means 200-250%); CIint ([3]; Table 5): ++++ (++++ means <50); half-life at 10 μM ([4]; Table 5, read-out: T½): 30 to 100 min; IC50 ([6]; LPS then Nigericin, Table 1): < 2.5 µM
O=C(O)/C=C/C(=O)OC1(c2cc(Cl)cc(OC(F)(F)F)c2)CCC1 [Intermediate 41, (E)-4-(1-(3-chloro-5-(trifluoromethoxy)phenyl)cyclobutoxy)-4-oxobut-2-enoic acid] | ++ (++ means >30-110) | 30 to 100 | ++++ (++++ means 5-15) | > 100 | 6 to 30 | 6 to 30 | 
